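Abbreviation: GI50, concentration required for 50% inhibition of growth. The concentration for full growth arrest is given as TGI.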
Legend:
Assay in all cases: NCI tumour cell line growth inhibition, 384-well format
[1] = system: MCF7 breast
[2] = system: SNB-19 CNS
[3] = system: NCI-H322M lung
[4] = system: IGROV1 ovarian
[5] = system: OVCAR-4 ovarian
[6] = system: HS 578T breast
[7] = system: COLO 205 colon
[8] = system: A498 renal
[9] = system: SK-OV-3 ovarian
[10] = system: SN12C renal
[11] = system: EKVX NSCLC
[12] = system: ACHN renal
[13] = system: NCI-H23 lung
[14] = system: MALME-3M melanoma
[15] = system: NCI/ADR-RES ovarian
[16] = system: RXF 393 renal
[17] = system: HCT-116 colon
[18] = system: SK-MEL-5 melanoma
[19] = system: NCI-H226 lung
[20] = system: DU-145 prostate
[21] = system: T-47D breast
[22] = system: OVCAR-3 ovarian
[23] = system: HOP-62 NSCLC
[24] = system: CAKI-1 renal
[25] = system: SNB-75 CNS
[26] = system: HOP-92 NSCLC
[27] = system: OVCAR-5 ovarian
[28] = system: SK-MEL-28 melanoma
[29] = system: LOX IMVI melanoma
[30] = system: KM12 colon
[31] = system: HT29 colon
[32] = system: NCI-H460 NSCLC
[33] = system: SF-539 CNS
[34] = system: U251 glioblastoma
[35] = system: HL-60(TB) leukemia
[36] = system: MDA-MB-231 breast
[37] = system: UACC-257 melanoma
[38] = system: BT-549 breast
[39] = system: NCI-H522 lung
[40] = system: HCT-15 colon
[41] = system: PC-3 prostate
[42] = system: MDA-MB-468 breast
[43] = system: MOLT-4 leukemia
[44] = system: HCC-2998 colon
[45] = system: UACC-62 melanoma
[46] = system: M14 melanoma
[47] = system: A549 NSCLC
[48] = system: RPMI-8226 leukemia
[49] = system: OVCAR-8 ovarian
[50] = system: TK-10 renal
[51] = system: SF-295 CNS
[52] = system: MDA-MB-435 melanoma
[53] = system: SF-268 CNS
[54] = system: SR leukemia
[55] = system: CCRF-CEM leukemia
[56] = system: UO-31 renal
[57] = system: K-562 leukemia
[58] = system: SW-620 colon
[59] = system: 786-0 renal

O=C(CCCCCCNC(=O)c1cnc(N(c2ccccc2)c2ccccc2)nc1)NO
GI50 [1]: 2.18 µM | TGI [1]: 11.8 µM | GI50 [2]: 3.59 µM | TGI [2]: 12.9 µM | GI50 [3]: 3.52 µM | TGI [3]: 16.9 µM | GI50 [4]: 2.13 µM | TGI [4]: 6.57 µM | GI50 [5]: 3.22 µM | TGI [5]: 13 µM | GI50 [6]: 1.97 µM | TGI [6]: 6.37 µM | GI50 [7]: 2 µM | TGI [7]: 3.9 µM | GI50 [8]: 3.49 µM | TGI [8]: 16.2 µM | GI50 [9]: 2.92 µM | TGI [9]: 14.1 µM | GI50 [10]: 2.48 µM | TGI [10]: 8.92 µM | GI50 [11]: 11.3 µM | TGI [11]: 43.8 µM | GI50 [12]: 7.93 µM | TGI [12]: 22.1 µM | GI50 [13]: 4.27 µM | TGI [13]: 21.2 µM | GI50 [14]: 1.49 µM | TGI [14]: 5.49 µM | GI50 [15]: 8.89 µM | TGI [15]: 84.1 µM | GI50 [16]: 4.37 µM | TGI [16]: 17.4 µM | GI50 [17]: 2.79 µM | TGI [17]: 10.5 µM | GI50 [18]: 2.02 µM | TGI [18]: 4.16 µM | GI50 [19]: 10.7 µM | TGI [19]: 26.2 µM | GI50 [20]: 2.18 µM | TGI [20]: 5.88 µM | GI50 [21]: 1.73 µM | TGI [21]: 4.32 µM | GI50 [22]: 2.01 µM | TGI [22]: 8.19 µM | GI50 [23]: 2.31 µM | TGI [23]: 10.3 µM | GI50 [24]: 4.36 µM | TGI [24]: 16.6 µM | GI50 [25]: 4.65 µM | TGI [25]: 30.3 µM | GI50 [26]: 3.26 µM | TGI [26]: 13.4 µM | GI50 [27]: 1.84 µM | TGI [27]: 4.8 µM | GI50 [28]: 3.23 µM | TGI [28]: 12.8 µM | GI50 [29]: 1.97 µM | TGI [29]: 4.3 µM | GI50 [30]: 3.53 µM | TGI [30]: 16.1 µM | GI50 [31]: 3.14 µM | TGI [31]: 13.2 µM | GI50 [32]: 2.22 µM | TGI [32]: 11.3 µM | GI50 [33]: 5.25 µM | TGI [33]: 22.4 µM | GI50 [34]: 1.85 µM | TGI [34]: 4.3 µM | GI50 [35]: 2.36 µM | TGI [35]: 3.82 µM | GI50 [36]: 2.19 µM | TGI [36]: 6.61 µM | GI50 [37]: 1.07 µM | TGI [37]: 5.12 µM | GI50 [38]: 3.08 µM | TGI [38]: 13.3 µM | GI50 [39]: 2.14 µM | TGI [39]: 8.63 µM | GI50 [40]: 13 µM | TGI [40]: 41.6 µM | GI50 [41]: 2.52 µM | TGI [41]: 8.1 µM | GI50 [42]: 1.5 µM | TGI [42]: 4.12 µM | GI50 [43]: 1.34 µM | TGI [43]: 2.62 µM | GI50 [44]: 2.7 µM | TGI [44]: 8.93 µM | GI50 [45]: 1.55 µM | TGI [45]: 4.13 µM | GI50 [46]: 3.7 µM | TGI [46]: 14.8 µM | GI50 [47]: 10.1 µM | TGI [47]: 25 µM | GI50 [48]: 0.573 µM | TGI [48]: 1.81 µM | GI50 [49]: 2.12 µM | TGI [49]: 13.9 µM | GI50 [50]: 3.37 µM | TGI [50]: 12.5 µM | GI50 [51]: 4.5 µM | TGI [51]: 15.6 µM | GI50 [52]: 2.38 µM | TGI [52]: 5.28 µM | GI50 [53]: 2.86 µM | TGI [53]: 10.1 µM | GI50 [54]: 0.323 µM | TGI [54]: 1.2 µM

CN(CCO)CC[C@H](CSc1ccccc1)Nc1ccc(S(=O)(=O)NC(=O)c2ccc(N3CCC([C@@H](O)c4ccccc4-c4ccc(Cl)cc4)CC3)cc2)cc1S(=O)(=O)C(F)(F)F
GI50 [2]: 4.85 µM | TGI [2]: 17.2 µM | GI50 [3]: 2.72 µM | TGI [3]: 9.6 µM | GI50 [4]: 1.6 µM | TGI [4]: 3.25 µM | GI50 [55]: < 0.01 µM | TGI [55]: 0.0137 µM | GI50 [7]: 0.807 µM | TGI [7]: 2.13 µM | GI50 [8]: 1.73 µM | TGI [8]: 6.09 µM | GI50 [10]: 4.04 µM | TGI [10]: 13.9 µM | GI50 [12]: 22.6 µM | TGI [12]: > 100 µM | GI50 [15]: > 100 µM | TGI [15]: > 100 µM | GI50 [16]: < 0.01 µM | TGI [16]: 0.53 µM | GI50 [17]: 2.97 µM | TGI [17]: 9.36 µM | GI50 [18]: 1.81 µM | TGI [18]: 6.32 µM | GI50 [56]: > 100 µM | TGI [56]: > 100 µM | GI50 [19]: 1.76 µM | TGI [19]: 6.04 µM | GI50 [20]: 18.6 µM | TGI [20]: 55.9 µM | GI50 [21]: 3.88 µM | TGI [21]: 14.6 µM | GI50 [22]: 3.54 µM | TGI [22]: 12.2 µM | GI50 [23]: 5.33 µM | TGI [23]: 16.7 µM | GI50 [24]: 5.42 µM | TGI [24]: 15.9 µM | GI50 [26]: < 0.01 µM | TGI [26]: 0.301 µM | GI50 [27]: 5 µM | TGI [27]: 21.3 µM | GI50 [28]: 2.31 µM | TGI [28]: 4.96 µM | GI50 [29]: 1.96 µM | TGI [29]: 3.62 µM | GI50 [30]: 2.69 µM | TGI [30]: 6.67 µM | GI50 [31]: 4.35 µM | TGI [31]: 15.5 µM | GI50 [32]: 13.7 µM | TGI [32]: 27.9 µM | GI50 [33]: 4.11 µM | TGI [33]: 14.7 µM | GI50 [34]: 2.62 µM | TGI [34]: 6.48 µM | GI50 [35]: < 0.01 µM | TGI [35]: < 0.01 µM | GI50 [37]: 2.29 µM | TGI [37]: 13.6 µM | GI50 [38]: 3.45 µM | TGI [38]: 10.3 µM | GI50 [40]: 64.9 µM | TGI [40]: > 100 µM | GI50 [41]: 2.43 µM | TGI [41]: 5.71 µM | GI50 [57]: 3.04 µM | TGI [57]: 8.08 µM | GI50 [43]: < 0.01 µM | TGI [43]: < 0.01 µM | GI50 [44]: < 0.01 µM | TGI [44]: 0.199 µM | GI50 [58]: 4.48 µM | TGI [58]: 16.2 µM | GI50 [45]: 2.32 µM | TGI [45]: 5.75 µM | GI50 [46]: 2.82 µM | TGI [46]: 7.47 µM | GI50 [47]: > 100 µM | TGI [47]: > 100 µM | GI50 [48]: < 0.01 µM | TGI [48]: < 0.01 µM | GI50 [49]: 11.9 µM | TGI [49]: 24.4 µM | GI50 [50]: 3.78 µM | TGI [50]: 15.9 µM | GI50 [59]: 2.51 µM | TGI [59]: 6.68 µM | GI50 [51]: 2.16 µM | TGI [51]: 5.23 µM | GI50 [52]: 3.42 µM | TGI [52]: 9.42 µM | GI50 [53]: 4.16 µM | TGI [53]: 13.9 µM

From PubChem BioAssay (NCI)
